Measured values reported in patent publication US20150175556A1, “DIHYDROPYRIMIDIN-2(1H)-ONES AND DIHYDROPYRIMIDIN-2(1H)-THIONES AS INHIBITORS OF SODIUM IODIDE SYMPORTER” (COMMISSARIAT A L'ENERGIE ATOMIQUE ET AUX ENERGIES …, priority 2012, published 2015).
pIC50: −log10 of the molar value.

Legend:
[1] = biological target: T1, sodium iodide symporter (NIS), iodide transport in FRTL5 cells (Rattus norvegicus, UniProt Q63008); details: F. Waltz et al., Anal. Biochem., 2010; read-out: IC50, competitive inhibition of iodide transport in FRTL5 cells; cited from earlier work
T1 construct: host or cells: FRTL5 (rat thyroid-derived cells), endogenous NIS
T1 sequence (Q63008 1-618): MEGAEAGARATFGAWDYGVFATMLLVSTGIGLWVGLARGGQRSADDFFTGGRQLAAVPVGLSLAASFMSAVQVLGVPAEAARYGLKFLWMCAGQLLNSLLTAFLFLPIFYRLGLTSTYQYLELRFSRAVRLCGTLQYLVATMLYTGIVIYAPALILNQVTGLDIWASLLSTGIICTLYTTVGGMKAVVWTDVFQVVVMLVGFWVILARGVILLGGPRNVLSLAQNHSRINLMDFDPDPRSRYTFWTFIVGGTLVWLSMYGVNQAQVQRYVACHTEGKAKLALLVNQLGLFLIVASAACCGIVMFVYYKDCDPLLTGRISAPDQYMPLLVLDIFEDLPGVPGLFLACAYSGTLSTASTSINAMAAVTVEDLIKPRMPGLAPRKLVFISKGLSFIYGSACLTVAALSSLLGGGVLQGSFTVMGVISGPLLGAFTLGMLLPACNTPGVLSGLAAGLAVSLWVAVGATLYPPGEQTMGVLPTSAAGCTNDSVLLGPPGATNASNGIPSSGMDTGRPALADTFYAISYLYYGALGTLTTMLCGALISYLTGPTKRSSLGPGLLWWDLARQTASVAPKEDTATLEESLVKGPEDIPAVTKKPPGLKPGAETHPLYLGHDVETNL

[2] = biological target: T2, hNIS-HEK293 cells (Homo sapiens, UniProt Q92911); details: cited from earlier work
T2 construct: host or cells: HEK293 stably expressing human NIS
T2 sequence (Q92911 1-643): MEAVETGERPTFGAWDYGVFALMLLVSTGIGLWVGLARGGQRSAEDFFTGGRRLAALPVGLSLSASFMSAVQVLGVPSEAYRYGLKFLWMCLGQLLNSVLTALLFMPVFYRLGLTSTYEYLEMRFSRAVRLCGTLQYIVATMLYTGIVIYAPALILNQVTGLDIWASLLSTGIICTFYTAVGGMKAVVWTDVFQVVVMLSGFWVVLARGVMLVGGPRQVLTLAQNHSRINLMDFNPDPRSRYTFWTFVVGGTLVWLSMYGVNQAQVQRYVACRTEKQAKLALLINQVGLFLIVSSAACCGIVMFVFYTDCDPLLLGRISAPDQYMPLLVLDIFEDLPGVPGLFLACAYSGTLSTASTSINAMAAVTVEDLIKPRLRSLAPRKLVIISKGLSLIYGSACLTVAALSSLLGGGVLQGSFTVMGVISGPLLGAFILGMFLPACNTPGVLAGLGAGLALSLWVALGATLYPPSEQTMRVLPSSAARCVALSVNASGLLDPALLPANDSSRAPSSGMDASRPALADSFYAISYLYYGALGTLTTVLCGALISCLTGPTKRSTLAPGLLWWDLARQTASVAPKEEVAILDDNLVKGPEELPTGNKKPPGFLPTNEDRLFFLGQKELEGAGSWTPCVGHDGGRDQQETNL

[3] = concentration up to 200 μM; cited from earlier work
[4] = biological target: T3, sodium iodide symporter (NIS), iodide uptake in FRTL5 cells (Rattus norvegicus, UniProt Q63008); test: Inhibition of iodide uptake in FRTL5 cells, non radioactive arsenic/cerium assay; type: cell-based; details: Table 5, variations at Y, R1, R3, R4, R5; averaged from two to four independent experiments; NaI 10 μM, 1 hour, 20°C; read-out: IC50 (μM), inhibitory activity against iodide uptake in FRTL5 cells
T3 construct: endogenous in cells; host or cells: FRTL5 (rat thyroid-derived cells)
T3 sequence (Q63008 1-618): T1 sequence (Q63008 1-618)
Description: Some of the synthesized compounds were evaluated for their ability to inhibit iodide entrapment in FRTL5 cells. The IC50 values were measured in at least […] independent experiments.
The biological activity of each compound was determined in FRTL5 cells, using a non radioactive arsenic/cerium assay as described in F. Waltz et al., Anal. Biochem., 2012, 396, 91-95. Compound potency was expressed as IC50, the concentration of compound necessary to achieve 50% inhibition of iodide uptake. Briefly, to FRTL5 cells at 70-90% confluence was added compound (200 μM, 10 μM, 0.5 μM, 25 nM, 1.2 nM, 60 pM, […], and 0.15 pM final), followed by NaI (10 μM final). After 1 hour incubation at 20±1° C., supernatant was removed and the cells were immediately assayed for iodide content using the modified As/Ce Sandell-Kolthoff reaction. NaClO4 was tested in each microplate as assay controls. The IC50 values of all compounds were measured least thrice independently.
Stock solutions of tested compounds were prepared in DMSO (20 mM) and that of NaClO4 in water (20 mM). These stock solutions were stored at 4° C. for up to 2 months. Sample dilutions: the day of the assay, a daughter plate (clear flat-bottomed 96-well polystyrene microplates, Costar 9017) was prepared from 20 mM stock solutions. NaClO4 (column 2) and DHPM samples (columns 4 to 11) were diluted at 10× the final concentration in uptake buffer.
FRTL5 cells were cultured as described in F. S. Ambesi-Impiombato et al., Proc. Natl. Acad. Sci. USA, 1980, 77, 3455-3459. Briefly, FRTL5 cells were cultured in Coon's modified F12 medium supplemented with 5% heat-inactivated fetal bovine serum (Invitrogen), 2 mM L-glutamine, 100 U/mL penicillin, 0.1 mg/mL streptomycin, 10 μg/mL insulin, 10 nM hydrocortisone, 10 ng/mL Gly-His-Lys acetate, 1 mU/mL TSH, 5 μg/mL transferrin at 37° C. and 5% CO2. For iodide uptake assays, 200 μL of FRTL5 cells with density of 250,000 cells/mL were dispensed in each well of clear flat-bottomed 96-well polystyrene microplates (Costar 3628) using the Multidrop 384 (ThermoFisher Scientific), and further cultured until confluence reached 80-90% (3-4 days).
The culture medium of FRTL5 monolayer cells at 80-90% confluence was replaced by uptake buffer (20° C.) via continuous aspiration/dispense cycle (600 μL) using a 96-needle head plate washer PW 384 (Tecan). The 96-needle head was set to a vertical position such that 80 μL of fresh uptake buffer remained in each well at the end of the cycle. The samples (10 μL each) from the daughter plate were transferred all at once to the assay plate using the 96-tip head pipettor Liquidator 96 (Mettler Toledo). Immediately after, 10 μL of a NaI solution at 100 μM was added to each well of the assay plate using the Liquidator 96. The assay plate was left to stand in the dark at 20±1° C. for 60 min. The assay plate was then washed with cold (4° C.) uptake buffer using the PW 384 plate washer and residual supernatant was immediately discarded by inverting the assay plate on absorbent paper.
Sodium iodide standards (S1 to S7) and water (S0) were distributed in duplicate (100 μL each) in the first and last column of the assay plate. Water (100 μL) was added to the columns with the Multidrop 384. 100 μL of the ammonium cerium (IV) sulfate solution (10.5 mM) was distributed into the columns, followed by 100 μL of the sodium arsenite (III) solution (24 mM) using the Multidrop 384. The assay plate was left to stand at 20±1° C. for 30 min. The absorbance at 420 nm (Abs420) was immediately recorded on a SpectraMax Plus 384 (Molecular Devices). A calibration curve was prepared for each plate by plotting the logarithmic conversion of the means of Abs420 (n=2) vs iodide standard concentrations (S0 to S7). The iodide concentrations in the samples were determined after linear regression of the calibration curve.

[5] = biological target: T4, iodide transport in rat thyroid-derived cell lines (FRTL5) (Rattus norvegicus, UniProt Q63008); details: reported in literature (N. Lecat-Guillet et al., 2008); read-out: IC50, iodide uptake in FRTL5 cells; cited from earlier work
T4 construct: host or cells: FRTL5 (rat thyroid-derived cells), endogenous NIS
T4 sequence (Q63008 1-618): T1 sequence (Q63008 1-618)

Row | melting point [°C] | Compound | pIC50 [1] | further results
1 |  | F[B-](F)(F)F [BE4^−] | 6.12 | 
2 |  | [O-][Cl+3]([O-])([O-])O [ClO4^−] | 6.85 | 
3 | 162 to 164 | COc1ccc(COC(=O)C2=C(C)NC(=O)NC2c2ccccc2)cc1 (stereo not drawn) [Compound 1, 4-methoxybenzyl 6-methyl-2-oxo-4-phenyl-1,2,3,4-tetrahydropyrimidine-5-carboxylate] |  | Efflux of iodide from preloaded hNIS-HEK293 cells [2]: can trigger a rapid efflux of iodide; Cytotoxicity [3]: not found cytotoxic
4 | 172 to 173 | CC1=C(C(=O)OCc2ccc3c(c2)OCO3)C(c2ccoc2)NC(=O)N1 (stereo not drawn) [Compound 62, Benzo[d][1,3]dioxol-5-ylmethyl 4-(furan-3-yl)-6-methyl-2-oxo-1,2,3,4-tetrahydropyrimidine-5-carboxylate] |  | IC50 [4]: 0.037 µM
5 | 235 to 237 | CC1=C(C(=O)NCc2ccc3c(c2)OCO3)C(c2ccccc2)NC(=O)N1 (stereo not drawn) [Compound 63, N-(benzo[d][1,3]dioxol-5-ylmethyl) 6-methyl-2-oxo-4-phenyl-1,2,3,4-tetrahydropyrimidine-5-carboxamide] |  | IC50 [4]: 0.078 µM
6 |  | F[B-](F)(F)c1ccc(OCc2ccccc2)cc1 [ITB11] |  | pIC50 [5]: 6.40
7 |  | O=[N+]([O-])O [NO3^−] | 3.60 | 
8 |  | F[P-](F)(F)(F)(F)F [PF6^−] | 8.05 | 
